Test results reported in US20110263664A1, “Inhibitors of PIM-1 Protein Kinases, Compositions and Methods for Treating Prostate Cancer” (MUSC FOUNDATION FOR RESEARCH DEVELOPMENT, priority 2007, published 2011).

Columns and labels:
Format in all cases: biochemical
FYN = FYN (Homo sapiens, UniProt P06241); experiment: Kinase selectivity, Table 5: FYN; details: read-out: selectivity data (inhibition), FYN
AKT2 = AKT2 (Homo sapiens, UniProt P31751); experiment: Kinase selectivity, Table 5: AKT2; details: read-out: selectivity data (inhibition), AKT2
AKT1 = AKT1 (Homo sapiens, UniProt P31749); experiment: Kinase selectivity, Table 5: AKT1; details: read-out: selectivity data (inhibition), AKT1
Sequence of AKT1 (P31749 whole entry, species assumed): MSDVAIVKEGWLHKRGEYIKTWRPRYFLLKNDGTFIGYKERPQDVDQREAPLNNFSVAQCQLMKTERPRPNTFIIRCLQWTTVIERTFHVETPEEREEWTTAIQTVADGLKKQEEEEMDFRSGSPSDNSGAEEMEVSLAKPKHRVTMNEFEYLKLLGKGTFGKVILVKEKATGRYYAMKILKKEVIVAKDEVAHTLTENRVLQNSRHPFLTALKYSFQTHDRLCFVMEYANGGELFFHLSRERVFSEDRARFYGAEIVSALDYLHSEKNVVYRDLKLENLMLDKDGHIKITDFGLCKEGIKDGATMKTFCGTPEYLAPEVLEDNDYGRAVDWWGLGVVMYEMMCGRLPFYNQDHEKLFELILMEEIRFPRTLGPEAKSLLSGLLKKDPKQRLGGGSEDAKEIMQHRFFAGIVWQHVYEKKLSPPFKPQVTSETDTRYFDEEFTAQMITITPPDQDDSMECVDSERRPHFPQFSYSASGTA

JAK2 = JAK2 (Homo sapiens, UniProt O60674); experiment: Kinase selectivity, Table 5: JAK2; details: read-out: selectivity data (inhibition), JAK2
ROCK2 = ROCK2 (Homo sapiens, UniProt O75116); experiment: Kinase selectivity, Table 5: ROCK2; details: read-out: selectivity data (inhibition), ROCK2
PIM1 = PIM1 (Homo sapiens, UniProt P11309); experiment: Kinase selectivity, Table 5: PIM1; details: read-out: selectivity data (inhibition), PIM1
Sequence of PIM1 (P11309 whole entry): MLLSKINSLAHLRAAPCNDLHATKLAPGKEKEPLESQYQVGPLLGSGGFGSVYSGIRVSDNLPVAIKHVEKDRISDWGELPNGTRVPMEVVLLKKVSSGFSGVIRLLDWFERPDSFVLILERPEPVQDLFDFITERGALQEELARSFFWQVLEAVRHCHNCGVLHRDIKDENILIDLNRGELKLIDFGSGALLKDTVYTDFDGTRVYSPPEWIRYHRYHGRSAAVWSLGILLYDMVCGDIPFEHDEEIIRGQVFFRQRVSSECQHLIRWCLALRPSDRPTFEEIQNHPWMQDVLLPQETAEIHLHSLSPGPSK

PKCζ = PKCζ (Homo sapiens, UniProt Q05513); experiment: Kinase selectivity, Table 5: PKCζ; details: read-out: selectivity data (inhibition), PKCζ
Sequence of PKCζ (Q05513 whole entry): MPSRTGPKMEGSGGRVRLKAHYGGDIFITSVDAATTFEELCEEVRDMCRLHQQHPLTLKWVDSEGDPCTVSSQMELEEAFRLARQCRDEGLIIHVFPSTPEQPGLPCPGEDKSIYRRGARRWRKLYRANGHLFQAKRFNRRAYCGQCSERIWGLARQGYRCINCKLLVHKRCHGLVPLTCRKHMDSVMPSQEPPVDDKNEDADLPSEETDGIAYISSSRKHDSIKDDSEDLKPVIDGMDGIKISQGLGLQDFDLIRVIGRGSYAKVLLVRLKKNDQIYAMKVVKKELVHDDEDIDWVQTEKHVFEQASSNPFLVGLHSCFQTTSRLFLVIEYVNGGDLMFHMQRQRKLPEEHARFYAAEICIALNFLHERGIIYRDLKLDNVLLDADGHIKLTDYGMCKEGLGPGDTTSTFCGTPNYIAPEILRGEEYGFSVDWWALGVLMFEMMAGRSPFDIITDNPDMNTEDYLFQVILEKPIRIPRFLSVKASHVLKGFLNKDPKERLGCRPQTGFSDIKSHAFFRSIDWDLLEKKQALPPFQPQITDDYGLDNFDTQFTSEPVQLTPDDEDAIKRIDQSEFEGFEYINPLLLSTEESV

INSR = INSR (Homo sapiens, UniProt P06213); experiment: Kinase selectivity, Table 5: INSR; details: read-out: selectivity data (inhibition), INSR
MET = MET (Homo sapiens, UniProt P08581); experiment: Kinase selectivity, Table 5: MET; details: read-out: selectivity data (inhibition), MET
MARK1 = MARK1 (Homo sapiens, UniProt Q9P0L2); experiment: Kinase selectivity, Table 5: MARK1; details: read-out: selectivity data (inhibition), MARK1
EGFR = EGFR (Homo sapiens, UniProt P00533); experiment: Kinase selectivity, Table 5: EGFR; details: read-out: selectivity data (inhibition), EGFR
IRAK4 = IRAK4 (Homo sapiens, UniProt Q9NWZ3); experiment: Kinase selectivity, Table 5: IRAK4; details: read-out: selectivity data (inhibition), IRAK4
Sequence of IRAK4 (Q9NWZ3 whole entry, species assumed): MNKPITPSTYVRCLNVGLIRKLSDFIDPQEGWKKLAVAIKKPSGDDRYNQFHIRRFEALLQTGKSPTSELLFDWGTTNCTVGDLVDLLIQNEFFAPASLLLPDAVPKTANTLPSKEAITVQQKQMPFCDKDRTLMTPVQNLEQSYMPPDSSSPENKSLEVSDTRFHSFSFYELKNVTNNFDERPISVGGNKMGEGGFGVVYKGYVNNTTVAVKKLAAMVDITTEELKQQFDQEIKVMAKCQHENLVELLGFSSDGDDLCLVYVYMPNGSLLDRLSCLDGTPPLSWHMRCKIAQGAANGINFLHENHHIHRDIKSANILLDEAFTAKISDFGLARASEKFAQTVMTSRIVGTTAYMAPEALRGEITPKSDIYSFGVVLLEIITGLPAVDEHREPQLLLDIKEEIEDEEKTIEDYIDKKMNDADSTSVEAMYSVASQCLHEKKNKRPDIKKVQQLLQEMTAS

CK1δ = CK1δ (Homo sapiens, UniProt P48730); experiment: Kinase selectivity, Table 5: CK1δ; details: read-out: selectivity data (inhibition), CK1δ
Sequence of CK1δ (P48730 whole entry): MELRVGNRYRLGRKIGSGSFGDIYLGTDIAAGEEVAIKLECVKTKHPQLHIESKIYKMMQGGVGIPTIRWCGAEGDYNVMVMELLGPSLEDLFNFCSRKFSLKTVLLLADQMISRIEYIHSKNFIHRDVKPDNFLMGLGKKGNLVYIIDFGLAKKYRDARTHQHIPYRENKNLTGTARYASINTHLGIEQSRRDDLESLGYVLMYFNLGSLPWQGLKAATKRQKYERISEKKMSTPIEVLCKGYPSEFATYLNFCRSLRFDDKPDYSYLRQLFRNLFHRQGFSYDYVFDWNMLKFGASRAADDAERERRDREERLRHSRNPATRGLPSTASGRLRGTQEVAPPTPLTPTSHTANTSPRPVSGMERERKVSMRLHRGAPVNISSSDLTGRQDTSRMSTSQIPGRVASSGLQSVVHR

PDGFRα = PDGFRα (Homo sapiens, UniProt P16234); experiment: Kinase selectivity, Table 5: PDGFRα; details: read-out: selectivity data (inhibition), PDGFRα
DYRK1α = DYRK1α (Homo sapiens, UniProt Q13627); experiment: Kinase selectivity, Table 5: DYRK1α; details: read-out: selectivity data (inhibition), DYRK1α
SYK = SYK (Homo sapiens, UniProt P43405); experiment: Kinase selectivity, Table 5: SYK; details: read-out: selectivity data (inhibition), SYK
SRC = SRC (Homo sapiens, UniProt P12931); experiment: Kinase selectivity, Table 5: SRC; details: read-out: selectivity data (inhibition), SRC
CAMK4 = CAMK4 (Homo sapiens, UniProt Q16566); experiment: Kinase selectivity, Table 5: CAMK4; details: read-out: selectivity data (inhibition), CAMK4
PLK1 = PLK1 (Homo sapiens, UniProt P53350); experiment: Kinase selectivity, Table 5: PLK1; details: read-out: selectivity data (inhibition), PLK1
CHK1 = CHK1 (Homo sapiens, UniProt O14757); experiment: Kinase selectivity, Table 5: CHK1; details: read-out: selectivity data (inhibition), CHK1
CHK2 = CHK2 (Homo sapiens, UniProt O96017); experiment: Kinase selectivity, Table 5: CHK2; details: read-out: selectivity data (inhibition), CHK2
PKGα = PKGα (Homo sapiens, UniProt Q13976); experiment: Kinase selectivity, Table 5: PKGα; details: read-out: selectivity data (inhibition), PKGα
c-TAK1 = c-TAK1 (Homo sapiens, UniProt P27448); experiment: Kinase selectivity, Table 5: c-TAK1; details: read-out: selectivity data (inhibition), c-TAK1
Sequence of c-TAK1 (P27448 whole entry, species assumed): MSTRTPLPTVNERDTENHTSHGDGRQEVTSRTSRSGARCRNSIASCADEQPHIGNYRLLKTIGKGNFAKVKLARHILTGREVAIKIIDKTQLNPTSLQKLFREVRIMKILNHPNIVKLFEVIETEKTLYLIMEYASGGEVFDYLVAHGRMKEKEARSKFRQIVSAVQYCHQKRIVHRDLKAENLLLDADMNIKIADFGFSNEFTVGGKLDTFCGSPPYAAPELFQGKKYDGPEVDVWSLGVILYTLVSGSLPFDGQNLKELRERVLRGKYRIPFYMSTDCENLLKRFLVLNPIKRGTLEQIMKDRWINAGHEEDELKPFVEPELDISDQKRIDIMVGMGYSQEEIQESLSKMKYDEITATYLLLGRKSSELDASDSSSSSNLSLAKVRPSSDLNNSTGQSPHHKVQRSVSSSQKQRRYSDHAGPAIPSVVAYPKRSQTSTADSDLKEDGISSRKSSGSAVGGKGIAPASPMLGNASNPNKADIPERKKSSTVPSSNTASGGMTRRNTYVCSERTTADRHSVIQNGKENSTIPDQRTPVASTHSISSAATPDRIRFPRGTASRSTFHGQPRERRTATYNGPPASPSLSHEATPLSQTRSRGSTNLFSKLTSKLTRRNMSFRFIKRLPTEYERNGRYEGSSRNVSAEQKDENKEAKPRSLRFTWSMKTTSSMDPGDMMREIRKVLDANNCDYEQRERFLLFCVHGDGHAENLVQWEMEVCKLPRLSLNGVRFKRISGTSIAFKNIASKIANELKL

FLT3 = FLT3 (Homo sapiens, UniProt P36888); experiment: Kinase selectivity, Table 5: FLT3; details: read-out: selectivity data (inhibition), FLT3
PAK2 = PAK2 (Homo sapiens, UniProt Q13177); experiment: Kinase selectivity, Table 5: PAK2; details: read-out: selectivity data (inhibition), PAK2
Sequence of PAK2 (Q13177 whole entry, species assumed): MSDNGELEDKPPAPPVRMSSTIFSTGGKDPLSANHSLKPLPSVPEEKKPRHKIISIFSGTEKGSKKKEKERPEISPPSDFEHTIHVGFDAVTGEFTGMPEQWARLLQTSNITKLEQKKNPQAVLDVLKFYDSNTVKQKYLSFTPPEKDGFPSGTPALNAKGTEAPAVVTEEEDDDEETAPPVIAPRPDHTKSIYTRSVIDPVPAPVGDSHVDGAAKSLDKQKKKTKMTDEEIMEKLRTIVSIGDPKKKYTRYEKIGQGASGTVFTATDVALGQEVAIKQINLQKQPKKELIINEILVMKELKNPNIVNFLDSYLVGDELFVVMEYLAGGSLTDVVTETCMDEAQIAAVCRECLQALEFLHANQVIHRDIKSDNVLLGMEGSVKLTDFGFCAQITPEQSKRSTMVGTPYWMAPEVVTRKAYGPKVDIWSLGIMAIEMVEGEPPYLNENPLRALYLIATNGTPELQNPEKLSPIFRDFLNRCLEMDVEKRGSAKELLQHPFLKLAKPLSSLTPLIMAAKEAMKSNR

Ikkβ = Ikkβ (Homo sapiens, UniProt O14920); experiment: Kinase selectivity, Table 5: Ikkβ; details: read-out: selectivity data (inhibition), Ikkβ
CDK2 = CDK2 (Homo sapiens, UniProt P24941); experiment: Kinase selectivity, Table 5: CDK2; details: read-out: selectivity data (inhibition), CDK2
Erk2 = Erk2 (Homo sapiens, UniProt P28482); experiment: Kinase selectivity, Table 5: Erk2; details: read-out: selectivity data (inhibition), Erk2
LCK = LCK (Homo sapiens, UniProt P06239); experiment: Kinase selectivity, Table 5: LCK; details: read-out: selectivity data (inhibition), LCK
c-Raf = c-Raf (Homo sapiens, UniProt P04049); experiment: Kinase selectivity, Table 5: c-Raf; details: read-out: selectivity data (inhibition), c-Raf
ABL = ABL (Homo sapiens, UniProt P00519); experiment: Kinase selectivity, Table 5: ABL; details: read-out: selectivity data (inhibition), ABL
Sequence of ABL (P00519 whole entry, species assumed): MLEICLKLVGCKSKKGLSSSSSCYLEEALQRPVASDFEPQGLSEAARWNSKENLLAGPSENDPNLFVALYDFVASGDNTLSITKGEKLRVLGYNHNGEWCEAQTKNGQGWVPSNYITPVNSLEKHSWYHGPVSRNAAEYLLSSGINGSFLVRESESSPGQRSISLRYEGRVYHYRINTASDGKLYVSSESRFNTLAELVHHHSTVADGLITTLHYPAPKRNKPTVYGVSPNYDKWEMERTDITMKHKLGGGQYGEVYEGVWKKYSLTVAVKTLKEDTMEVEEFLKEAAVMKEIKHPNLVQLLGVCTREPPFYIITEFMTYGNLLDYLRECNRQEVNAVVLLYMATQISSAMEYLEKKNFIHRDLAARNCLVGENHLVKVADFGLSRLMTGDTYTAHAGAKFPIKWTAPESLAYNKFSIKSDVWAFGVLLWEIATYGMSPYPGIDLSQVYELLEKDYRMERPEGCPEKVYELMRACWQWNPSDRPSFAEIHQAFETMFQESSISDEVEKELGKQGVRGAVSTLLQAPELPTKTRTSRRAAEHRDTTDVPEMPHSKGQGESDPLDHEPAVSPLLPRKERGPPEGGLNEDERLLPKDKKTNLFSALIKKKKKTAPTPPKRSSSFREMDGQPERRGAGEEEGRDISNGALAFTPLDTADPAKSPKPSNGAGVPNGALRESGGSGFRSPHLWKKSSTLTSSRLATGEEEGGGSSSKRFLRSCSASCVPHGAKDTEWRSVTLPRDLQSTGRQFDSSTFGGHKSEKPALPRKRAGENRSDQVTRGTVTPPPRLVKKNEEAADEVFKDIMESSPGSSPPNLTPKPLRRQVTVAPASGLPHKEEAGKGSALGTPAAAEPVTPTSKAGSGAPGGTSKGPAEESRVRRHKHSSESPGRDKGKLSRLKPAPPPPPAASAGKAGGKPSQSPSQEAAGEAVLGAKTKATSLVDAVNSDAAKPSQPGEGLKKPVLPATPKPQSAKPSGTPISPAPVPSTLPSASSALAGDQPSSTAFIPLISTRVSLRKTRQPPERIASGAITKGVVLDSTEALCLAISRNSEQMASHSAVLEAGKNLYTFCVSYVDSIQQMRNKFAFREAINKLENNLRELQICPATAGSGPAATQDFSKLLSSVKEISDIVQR

PIM2 = PIM2 (Homo sapiens, UniProt Q9P1W9); experiment: Kinase selectivity, Table 5: PIM2; details: read-out: selectivity data (inhibition), PIM2
Sequence of PIM2 (Q9P1W9 whole entry): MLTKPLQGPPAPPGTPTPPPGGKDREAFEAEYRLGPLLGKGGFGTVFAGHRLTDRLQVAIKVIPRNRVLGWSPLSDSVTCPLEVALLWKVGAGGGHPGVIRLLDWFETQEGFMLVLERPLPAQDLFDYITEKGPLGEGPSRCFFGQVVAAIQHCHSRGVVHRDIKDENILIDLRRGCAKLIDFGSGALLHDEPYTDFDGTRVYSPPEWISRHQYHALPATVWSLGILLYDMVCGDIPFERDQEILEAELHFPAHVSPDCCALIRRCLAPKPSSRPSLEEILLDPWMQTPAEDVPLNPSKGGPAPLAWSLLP

PKA = PKA (Homo sapiens, UniProt P17612); experiment: Kinase selectivity, Table 5: PKA; details: read-out: selectivity data (inhibition), PKA
FGFR1 = FGFR1 (Homo sapiens, UniProt P11362); experiment: Kinase selectivity, Table 5: FGFR1; details: read-out: selectivity data (inhibition), FGFR1

Molecule CC(C)c1ccc(C=C2SC(=O)NC2=O)cc1 [5-(4-iso-propylbenzylidene)thiazolidine-2,4-dione] has an inhibition at 5 µM (FYN) of 0%, an inhibition at 5 µM (AKT2) of -1% and an inhibition at 5 µM (AKT1) of 6%. It also gave an inhibition at 5 µM (JAK2) of 18%, an inhibition at 5 µM (ROCK2) of 5% and an inhibition at 5 µM (PIM1) of 36%. For the same molecule, the inhibition at 5 µM (PKCζ) was 3%, the inhibition at 5 µM (INSR) was 4% and the inhibition at 5 µM (MET) was -6%. The inhibition at 5 µM (MARK1) was -6%, the inhibition at 5 µM (EGFR) was -3% and the inhibition at 5 µM (IRAK4) was 5%. For the same molecule, the inhibition at 5 µM (CK1δ) was 7%, the inhibition at 5 µM (PDGFRα) was 6% and the inhibition at 5 µM (DYRK1α) was 68%. The inhibition at 5 µM (SYK) was -3%, the inhibition at 5 µM (SRC) was 4% and the inhibition at 5 µM (CAMK4) was -8%. The inhibition at 5 µM (PLK1) was 9%, the inhibition at 5 µM (CHK1) was -20% and the inhibition at 5 µM (CHK2) was 4%. The inhibition at 5 µM (PKGα) was 0%, the inhibition at 5 µM (c-TAK1) was 0% and the inhibition at 5 µM (FLT3) was 1%. For the same molecule, the inhibition at 5 µM (PAK2) was -1%, the inhibition at 5 µM (Ikkβ) was 10% and the inhibition at 5 µM (CDK2) was -2%. It also gave an inhibition at 5 µM (Erk2) of -1%, an inhibition at 5 µM (LCK) of 3% and an inhibition at 5 µM (c-Raf) of -1%. The inhibition at 5 µM (ABL) was 6%, the inhibition at 5 µM (PIM2) was 62% and the inhibition at 5 µM (PKA) was 3%. The inhibition at 5 µM (FGFR1) was 1%.
